Reference: patent US20230240290A1, “USE OF (Z)-3-HEXENYL ESTERS AND METHOD FOR PROTECTING PLANTS AGAINST PESTS” (UNIVERSITAT POLITÈCNICA DE VALÈNCIA, priority 2020, published 2023)

How the values were obtained:
[1] = test system: SI-PI-I (marker for plant proteinase inhibitors); assay: Transcriptional response of SI-PI-I in tomato plants exposed to volatiles (laboratory); format: in vivo, Solanum lycopersicum cv. Moneymaker; conditions: intact tomato plants exposed 24 h; filter paper, 1:10,000 ester:methanol; n=8
Experimental: Moneymaker tomato plants were used. Two weeks after seed germination, the seedlings were individually transplanted into pots (8×8×8 cm). The plants were kept at 25±2° C., with a constant relative humidity of 65%±5% and a 14:10 h (light:dark) photoperiod. Tomato plants that had not received any pesticide treatment at four weeks of age (about 20 cm tall) were used. All volatiles used were obtained from Sigma-Aldrich (St. Louis, Mo., USA). Each volatile was exposed by using a 2×2 cm piece of filter paper on which 10 μl of a solution containing the corresponding volatile at a concentration of 1:10,000 [(Z)-3-hexenyl ester:methanol] was impregnated as an emitting source of the corresponding volatile (Pérez-Hedo, M. et al. Biocontrol, 63: 203-213 (2018)).
To activate a plant, two pieces of filter paper impregnated with the volatile were placed at the bottom of a 30×30×30 cm plastic cage (BugDorm-1 Insect Tents; MegaView Science Co., Ltd, Taichung, Taiwan) into which the plant was introduced. A control treatment was carried out in which the two pieces of filter paper were impregnated with 10 μl of methanol. Eight repetitions per treatment were performed. The plants of the treatments were kept exposed to the volatile without disturbing for 24 hours in separate and isolated climatic chambers to avoid any interference from the volatiles and were kept at 25±2° C., 65±10% RH, and a 14:10 h (L:D) photoperiod. […]
The methodology followed for extracting and quantifying gene expression was described by Pérez-Hedo et al. Journal of Pest Science 3: 543-554 (2015). The primers used were forward primer: 5′-[…]-3′ (SEQ ID NO: 1) and reverse primer: 5′-[…]-3′ (SEQ ID NO: 2) for the quantification of PR1, forward primer: 5′-[…]-3′ (SEQ ID NO: 3) and reverse primer: 5′-[…]-3′ (SEQ ID NO: 4) for SI-PI-I, and forward primer: 5′-[…]-3′ (SEQ ID NO: 5) and reverse primer: 5′-[…]-3′ (SEQ ID NO: 6) for the SI-PI-II gene. […]

[2] = test system: PIN2 (marker gene for the jasmonic acid signaling pathway); assay: Semi-field release assay, transcriptional response of PIN2 in tomato plants; format: in vivo; conditions: 4 weeks
Experimental: Two different types of polymeric emitters were used to test the activation level that different emission levels of (Z)-3-hexenyl propionate can provide: 4-mL low-density (LD) polyethylene vial and 4-mL high-density (HD) polyethylene vial. The highest emission level (5 mg/day) was achieved through previous laboratory studies with LD dispensers loaded with 20 mg of the pure substance. The lowest emission level (0.01 mg/day) was provided by HD vials loaded with a 1:100 mixture of (Z)-3-hexenyl propionate and paraffinic oil (0.02:2; g:g). The emission kinetics of the emitters used during the experiments was controlled by studying weight loss (gravimetric method). […] The difference in weight recorded in each period will be the emitted quantity of the substance for each type of dispenser. To obtain the mean emission level of each dispenser, the recorded weights (y) are related to the aging time (x) using a multiple regression analysis.
Once the mentioned emission levels have been established, 5 and 0.01 mg/day/dispenser, tomato plants were exposed to the different emission levels through an experiment under semi-field conditions in a glass greenhouse. […] Environmental conditions were monitored and recorded using a Mithra clima data logger (ver. 1.01.03, Priva nutricontrol Ibérica S.L). […]

## CC/C=C\CCOC(=O)CC [(Z)-3-hexenyl propanoate]
[1]
  Transcriptional response of SI-PI-I compared to the control: significantly overexpressed
[2]; 0.01 mg/day emission, HD polyethylene vial
  Transcriptional response of PIN2 (jasmonic acid pathway): did not affect exposed plants
[2]; 5 mg/day emission, LD polyethylene vial
  Transcriptional response of PIN2 (jasmonic acid pathway): significantly activated
